# Experimental data reported in patent US20210128511A1, “PRODRUG COMPOSITIONS AND METHODS OF TREATMENT” (AQUESTIVE THERAPEUTICS, INC., priority 2019, published 2021).
# “Also recorded” adds a separate entry of the source.
# How the values were obtained:
# [1] = Intramuscular study in minipig for prodrugs, epinephrine pharmacokinetic profile; type: in vivo, male Yucatan miniature swine; conditions: epinephrine in plasma, IM 2 mg/animal
# Procedure: (§1) Yucatan minipigs (n=4 males per group) were weighed and weights were recorded. The morning of the study, the vascular access port (VAP) of each animal was checked for proper functioning. Minipigs with viable VAP were removed from the home cage and placed in a holding sling. The animals were fasted overnight prior to dose administration and for the duration of PK blood collections.
# All the formulations were prepared fresh on the day of dosing and maintained on wet ice until dosing. The dose was injected in the rear hind limb. Prior to administering, the plunger of the syringe was aspirated and observed for any blood that may flow into the syringe. If no blood was observed, it was verified that the needle was in proper placement, and the test articles were administered.
# At each specified time-point, 6 mL of whole blood was collected into blood collection tubes containing K2EDTA as the anticoagulant and sodium metabisulfite as stabilizer. Sodium metabisulfite was at a concentration of 8.9 mM, pH 3 (60 μL/6 mL of whole blood of the 890 mM stock solution). SigmaFast (600 μL of SigmaFast 1× solution to 6 mL of whole blood) was added immediately to the tubes as the enzyme arresting agent. The tubes were inverted several times for mixing upon addition of SigmaFast solution. […] The resulting plasma was obtained and stored at approximately […]. The analysis of epinephrine was done using LC-MS/MS method.
# as §1, with “Applicants sought to identify epinephrine prodrugs with higher permeability and slower hydrolysis after intramuscular (IM) administrations. […] Yucatan” for “Yucatan”, “minipigs” for “minipigs (n=4 males per group)”, “in the” for “weights were recorded. The”
# The dose was injected in the rear hind limb. […] At each specified time-point, 6 mL of whole blood was collected into blood collection tubes containing anticoagulant and stabilizer. Protease inhibitor cocktail was added and the tubes were inverted several times for mixing. All blood samples were centrifuged and the resulting plasma was analyzed for epinephrine using LC-MS/MS method.
# [2] = In vitro human whole blood hydrolysis assay; conditions: for hydrolysis in human whole blood compared to L-Dipivefrin: 1 μM, 37° C., up to 6 hours, epinephrine in plasma by LC-MS/MS
# Procedure: Fresh healthy human whole blood was collected in blood collection tubes and preincubated for 30 min at 37° C.
# Using human whole blood in vitro, epinephrine levels in plasma was measured. Whole blood was collected from 2 donors. Compounds were incubated at 1 μM conc with Stabilizer. Plasma was separated after stopping the enzyme reaction at different timepoints. Samples were extracted and analyzed by LC-MS method.
# [3] = Ex vivo permeation study, Franz diffusion cell; type: in vitro ADME, porcine; conditions: for permeation: ex vivo, compared to L-Dipivefrin
# Procedure: The Franz diffusion cell apparatus consists of two chambers separated by a membrane. The permeation studies were conducted using porcine buccal mucosa obtained from a slaughterhouse. The tissues were dermatomed to typically […] and mounted in vertical Franz diffusion cells maintained at 37° C. The tissue membrane separates the donor compartment containing the drug mixed with the permeation enhancer solution and the receptor compartment containing the collection media whish was selected to provide sink conditions throughout the experiment. The permeation rate was observed over several hours by analysing drug concentration in the receptor medium.
# In one example, a permeation procedure is conducted as follows. A temperature bath is set to 37° C., and receiver media is placed in a water bath to adjust the temperature and begin degassing. A Franz diffusion cell is obtained and prepared. The Franz diffusion cell includes a donor compound, a donor chamber, a membrane, sampling port, receptor chamber, stir bar, and a heater/circulator. A stir bar is inserted into a Franz diffusion cell. Tissue is placed over the Franz diffusion cell, and it is ensured that the tissue covers the entire area with an overlap onto a glass joint. The top of a diffusion cell is placed over the tissue, and the top of the cell is clamped to the bottom. About 5 mL of receptor media is loaded into the receiver area to ensure that no air bubbles are trapped in the received portion of the cell. This ensures that all 5 mL can fit into the receiver area. Stirring is begun, and temperature is allowed to equilibrate for about 20 minutes. Meanwhile, High Performance Liquid Chromatography (HPLC) vials are labelled by cell number and time point. One must then check again for air bubbles as the solution will degas during heating.
# If testing films, one can perform the following next steps: (1) weigh films, punch to match diffusion area (or smaller), reweigh, record pre- and post-punching weight; (2) wet a donor area with approximately 100 μL of phosphate buffer; (3) place film on a donor surface, top with 400 μL of phosphate buffer, and start timers.
# For solution studies, one can perform the following steps: (1) using a micropipette, dispense 500 μL of the solution into each donor cell, start the timers; (2) sample 200 μL at the following time points (time=0 min, 20 min, 40 min, 60 min, 120 min, 180 min, 240 min, 300 min, 360 min), and place in labelled HPLC vials, ensure no air is trapped in the bottom of the vial by tapping the closed vials; (3) replace each sample time with 200 uL of receptor media (to maintain 5 mL); (4) When all time points completed, disassemble the cells and dispose of all materials properly.
# 1. Tissue is freshly excised and shipped (e.g. overnight) at 4° C. 2. The tissue is processed and frozen at −20° C. for up to three weeks prior to use. 3. The tissue is dermatomed to precise thickness. 4. Approximately 5 mL of receiving media is added to the receiving compartment. The media is selected to ensure sink conditions. 5. The tissue is placed in a Franz diffusion cell, which includes a donor compound, a donor chamber, a membrane, sampling port, receptor chamber, stir bar, and a heater/circulator. 6. Approximately 0.5 mL of donor solution is applied or 8 mm circular film and wetted with 500 μL PBS buffer. 7. Samples are taken from the receiving chamber at given intervals and replaced with fresh media.
# [4] = Hydrolysis testing after IV exposure, PK parameters; type: in vivo
# Procedure: Hydrolysis was analyzed after intravenous (IV) administrations. All Groups were tested at the following time intervals: 0 (predose), 2, 5, 10, 12, 15, 17, 20, 25, 30, 40, 60, 90 and 120 minutes and 3 hr, 4 hr, 6 hr and 8 hr post dose.
# [5] = Effect of sodium fluoride on drug absorption; conditions: relative to compositions that did not include NaF
# Excerpt: Referring to FIG. 17, the graph indicates the effect of sodium fluoride on drug absorption.
hydrolysis in human whole blood compared to L-Dipivefrin [2],SMILES,Cmax and AUC compared among prodrugs [1],permeation [3],further results
,CNCC(OC(=O)C(C)(C)C)c1ccc(OC(=O)C(C)(C)C)c(OC(=O)C(C)(C)C)c1 (centres unmarked) [AQEP-01],AQEP-04>AQEP-02>AQEP-03>AQEP-01,,
,CCC(C)(C)C(=O)Oc1ccc(C(O)CNC)cc1OC(=O)C(C)(C)CC (centres unmarked) [AQEP-02],AQEP-04>AQEP-02>AQEP-03>AQEP-01,,
faster hydrolysis,CNCC(O)c1ccc(OC(=O)c2ccccc2)c(OC(=O)c2ccccc2)c1 (centres unmarked) [AQEP-04],"higher Cmax and AUC compared to Prodrugs 01, 02 and 03",did not permeate as well; also recorded: did not permeate higher than L-Dipivefrin,"Cmax and AUC compared to L-Dipivefrin [1]: less; plasma levels of epinephrine converted from prodrug, compared to L-Dipivefrin ([2]; 1 μM in human whole blood in vitro): Rapid conversion and higher levels of epinephrine"
,CCC(=O)Oc1ccc(C(O)CNC)cc1OC(=O)CC (centres unmarked) [AQEP-10],,effective permeation,
faster hydrolysis,CCCCCC(=O)Oc1ccc(C(O)CNC)cc1OC(=O)CCCCC (centres unmarked) [AQEP-11],,,permeation (flux vs. carbon chain length) ([3]; 5 carbon straight chain): permeation dropped
,CCCC(=O)Oc1ccc(C(O)CNC)cc1OC(=O)CCC (centres unmarked) [AQEP-05],,effective permeation,conversion to epinephrine after IV administration compared to L-Dipivefrin [4]: Rapid conversion
faster hydrolysis,CNCC(O)c1ccc(OC(=O)C(C)C)c(OC(=O)C(C)C)c1 (centres unmarked) [AQEP-09],,effective permeation,"ex vivo permeation of film formulations with varying polysaccharide content ([3]; formulations containing pullulan, compared to L-dipivefrin): Higher permeation; absorption with addition of NaF to the formulation [5]: increased the absorption"
faster hydrolysis,CCCCC(=O)Oc1ccc(C(O)CNC)cc1OC(=O)CCCC (centres unmarked) [AQEP-08],,effective permeation,
faster hydrolysis,CCOC(=O)Oc1ccc(C(O)CNC)cc1OC(=O)OCC (centres unmarked) [AQEP-12],,,

SMILES,hydrolysis in human whole blood compared to L-Dipivefrin [2],Cmax and AUC compared among prodrugs [1],permeation [3],further results
CNCC(O)c1ccc(OC(=O)N(C)C)c(OC(=O)N(C)C)c1 (centres unmarked) [AQEP-03],minimal hydrolysis; also recorded: did not show faster hydrolysis,AQEP-04>AQEP-02>AQEP-03>AQEP-01,,
CN(CC(O)c1ccc(O)c(O)c1)C(=O)OC(C)(C)C (centres unmarked) [AQEP-07],did not show any hydrolysis; also recorded: did not show faster hydrolysis,,,
CC(C)OC(=O)N(C)CC(O)c1ccc(O)c(O)c1 (centres unmarked) [AQEP-06],did not show any hydrolysis; also recorded: did not show faster hydrolysis,,,
